# From ChEMBL document CHEMBL1136171, “Acetylenic TACE inhibitors. Part 1. SAR of the acyclic sulfonamide hydroxamates” (Bioorg Med Chem Lett, 2003)
# Assays:
# THP-1 [1] = test: Inhibition of LPS-stimulated production of TNF-alpha, at the dose of 1 uM concentration; type: functional; details: for inhibition at 1 µM: Homo sapiens, THP-1
# [2] = biological target: T1, Disintegrin and metalloproteinase domain-containing protein 17 (Homo sapiens, UniProt P78536); test: In vitro inhibition of tumor necrosis factor-alpha converting enzyme
# T1 sequence (P78536 whole entry, the tested form may be a part): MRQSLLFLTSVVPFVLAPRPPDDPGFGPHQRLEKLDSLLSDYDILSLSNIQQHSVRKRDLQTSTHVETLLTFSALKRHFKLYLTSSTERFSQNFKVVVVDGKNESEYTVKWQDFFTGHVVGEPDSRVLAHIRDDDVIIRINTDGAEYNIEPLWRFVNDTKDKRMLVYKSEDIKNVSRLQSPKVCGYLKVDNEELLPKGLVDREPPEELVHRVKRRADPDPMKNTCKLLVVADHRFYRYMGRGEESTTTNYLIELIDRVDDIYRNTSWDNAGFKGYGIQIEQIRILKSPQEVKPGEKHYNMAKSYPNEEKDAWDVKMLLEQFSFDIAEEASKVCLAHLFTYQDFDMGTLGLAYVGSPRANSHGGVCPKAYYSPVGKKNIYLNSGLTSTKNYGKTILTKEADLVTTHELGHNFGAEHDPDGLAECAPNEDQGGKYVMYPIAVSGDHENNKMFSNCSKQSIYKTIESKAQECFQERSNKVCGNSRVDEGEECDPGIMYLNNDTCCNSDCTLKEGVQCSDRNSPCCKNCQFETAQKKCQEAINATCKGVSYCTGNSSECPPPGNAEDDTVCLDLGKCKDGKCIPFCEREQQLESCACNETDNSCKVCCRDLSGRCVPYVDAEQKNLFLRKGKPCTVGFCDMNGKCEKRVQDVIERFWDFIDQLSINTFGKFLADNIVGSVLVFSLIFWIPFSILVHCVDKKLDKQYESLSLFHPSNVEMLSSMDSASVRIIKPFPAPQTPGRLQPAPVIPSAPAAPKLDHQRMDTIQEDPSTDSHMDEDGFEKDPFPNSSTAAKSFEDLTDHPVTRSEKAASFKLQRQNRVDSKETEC
# Interstitial collagenase = biological target: T2, Interstitial collagenase (Homo sapiens, UniProt P03956); test: In vitro inhibition of Matrix metalloprotein 1
# T2 sequence (P03956 whole entry): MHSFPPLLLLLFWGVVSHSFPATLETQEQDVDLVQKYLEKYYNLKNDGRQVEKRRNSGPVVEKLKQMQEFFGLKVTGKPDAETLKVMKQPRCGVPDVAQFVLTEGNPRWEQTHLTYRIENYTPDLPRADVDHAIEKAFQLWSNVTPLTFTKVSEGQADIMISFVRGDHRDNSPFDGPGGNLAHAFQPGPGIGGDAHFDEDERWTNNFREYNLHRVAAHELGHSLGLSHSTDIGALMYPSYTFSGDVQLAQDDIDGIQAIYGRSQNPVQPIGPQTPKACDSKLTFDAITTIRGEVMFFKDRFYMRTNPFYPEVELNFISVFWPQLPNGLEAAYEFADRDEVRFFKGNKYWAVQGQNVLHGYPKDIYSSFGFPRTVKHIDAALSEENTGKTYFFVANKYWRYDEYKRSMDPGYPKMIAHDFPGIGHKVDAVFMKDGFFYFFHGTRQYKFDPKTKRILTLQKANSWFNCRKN
# [3] = biological target: Matrix metalloproteinase-9 (Homo sapiens, UniProt P14780)
# Chain of Matrix metalloproteinase-9 (P14780 whole entry): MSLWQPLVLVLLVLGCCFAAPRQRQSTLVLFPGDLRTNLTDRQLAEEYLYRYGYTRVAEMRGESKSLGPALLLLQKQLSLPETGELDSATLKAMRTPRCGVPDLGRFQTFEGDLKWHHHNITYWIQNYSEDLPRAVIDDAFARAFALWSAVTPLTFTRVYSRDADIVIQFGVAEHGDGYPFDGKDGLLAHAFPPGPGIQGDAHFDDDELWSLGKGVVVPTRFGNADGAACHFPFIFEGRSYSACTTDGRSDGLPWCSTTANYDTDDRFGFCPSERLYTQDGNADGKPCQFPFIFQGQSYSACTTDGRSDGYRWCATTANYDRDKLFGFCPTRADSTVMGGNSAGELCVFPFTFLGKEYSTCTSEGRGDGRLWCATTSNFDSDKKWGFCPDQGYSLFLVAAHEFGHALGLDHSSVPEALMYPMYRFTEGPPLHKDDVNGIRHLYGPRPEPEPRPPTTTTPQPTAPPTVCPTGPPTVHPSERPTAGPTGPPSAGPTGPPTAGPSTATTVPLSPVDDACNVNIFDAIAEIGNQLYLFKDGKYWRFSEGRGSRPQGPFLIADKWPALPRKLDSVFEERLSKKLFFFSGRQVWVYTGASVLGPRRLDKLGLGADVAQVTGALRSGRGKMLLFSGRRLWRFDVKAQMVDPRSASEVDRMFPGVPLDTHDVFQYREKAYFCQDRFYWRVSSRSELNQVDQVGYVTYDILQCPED
# Description: In vitro inhibition of Matrix metalloprotein-9
# Collagenase 3 = Collagenase 3 (Homo sapiens, UniProt P45452)
# Description: In vitro inhibition of Matrix metalloprotein 13
# [4] = biological target: T3, Interstitial collagenase (Homo sapiens) (UniProt P03956); test: Inhibition of Matrix metalloprotein 1 at 10 uM
# T3 sequence (whole entry): T2 sequence (P03956 whole entry)
# THP-1 [5] = test: Inhibition of LPS-stimulated production of TNF-alpha at the dose of 3 uM concentration; type: functional; details: Homo sapiens
# Mus musculus [6] = test: In vivo percent inhibition against LPS-stimulated production of TNF-alpha in a mouse at a dose of 50 mg/Kg p.o.; type: functional; details: po, read-out: Inhibition
# [7] = biological target: T1, Disintegrin and metalloproteinase domain-containing protein 17; test: Inhibition of tumor necrosis factor-alpha converting enzyme; details: concentration not given here
# [8] = Oral bioavailability in rat at 10 mg/kg of the compound; type: ADME, organism-based; details: in vivo
# Homo sapiens = species: Homo sapiens; test: Inhibitory concentration against LPS-stimulated TNF-alpha production in human whole blood; type: functional
# Mus musculus [9] = test: Compound was reproducibly active at reducing clinical severity scores expressed as efficacy in mouse p.o.; type: functional
# [10] = Oral bioavailability in dog at 10 mg/kg of the compound; type: ADME, organism-based, Canis lupus familiaris; details: in vivo
# Mus musculus [11] = test: Compound was reproducibly active at reducing clinical severity scores in mouse p.o.; type: functional
# [12] = Oral bioavailability in monkey at 10 mg/kg of the compound; type: ADME, organism-based; details: cercopithecidae, in vivo
# [13] = Oral bioavailability in mouse at 10 mg/kg of the compound; type: ADME, organism-based; details: in vivo
# Mus musculus [14] = species: Mus musculus; test: Effective dose in mouse; type: functional
SMILES,inhibition at 1 µM (THP-1 [1]) [%],IC50 [2] [nM],IC50 (Interstitial collagenase) [nM],IC50 [3] [nM],IC50 (Collagenase 3) [nM],further results
CC#CCOc1ccc(S(=O)(=O)NC(C)(C)C(=O)NO)cc1,9,,,,,
CC#CCOc1ccc(S(=O)(=O)N(C)[C@H](C)C(=O)NO)cc1,,5,330,68,28,Inhibition (THP-1 [1]): 60%
CC#CCOc1ccc(S(=O)(=O)N(C)C(CSCc2cccnc2)C(=O)NO)cc1 (stereo not given),80,,,,5,
CC#CCOc1ccc(S(=O)(=O)NCC(=O)NO)cc1,15,5,,,,inhibition [4]: 47%
CC#CCOc1ccc(S(=O)(=O)N(CC(=O)NO)Cc2cccnc2)cc1,45,,,,,
C#CCNc1ccc(S(=O)(=O)N(C)CC(=O)NO)cc1,,,~10000,,,
CC#CCOc1ccc(S(=O)(=O)N(C)CCC(=O)NO)cc1,,,,,,inhibition at 3 µM (THP-1 [5]): 9%
CC#CCOc1ccc(S(=O)(=O)N(C)CC(=O)NO)cc1,22,7,,,,
CC#CCOc1ccc(S(=O)(=O)N[C@@H](C(=O)NO)C(C)C)cc1,58,10,2960,42,18,
CC#CCOc1ccc(S(=O)(=O)NCCC(=O)NO)cc1,,,,,,inhibition at 3 µM (THP-1 [5]): 0%
CC#CCOc1ccc(S(=O)(=O)N[C@H](C)C(=O)NO)cc1,40,4,4030,796,195,inhibition in vivo at 50 mg/kg (Mus musculus [6]): > 75%
CC#CCOc1ccc(S(=O)(=O)N(C)[C@@H](C(=O)NO)C(C)C)cc1,79,15,259,,38,
CC#CCOc1ccc(S(=O)(=O)N(C)C(C(=O)NO)C(C)(C)SCc2cccnc2)cc1 (stereo not given),52,54,,4,2,
CN(CC(=O)NO)S(=O)(=O)c1ccc(CCC#N)cc1,,,> 10000,74,207,inhibition [7]: 6%; inhibition at 3 µM (THP-1 [5]): 7%
CC#CCOc1ccc(S(=O)(=O)N[C@@H](C(=O)NO)C(C)(C)C)cc1,78,,,,,inhibition in vivo at 50 mg/kg (Mus musculus [6]): > 75%
CC#CCOc1ccc(S(=O)(=O)NC(CSCc2cccnc2)C(=O)NO)cc1 (stereo not given),56,3,1910,160,28,
CC#CCOc1ccc(S(=O)(=O)NC(C(=O)NO)C(C)(C)SCc2cccnc2)cc1 (stereo not given),49,6,476,130,8,
CC#CCOc1ccc(S(=O)(=O)N[C@@H](C(=O)NO)C(C)O)cc1 (stereo not given in full),50,10,2470,777,86,bioavailability [8]: 46%; IC50 (Homo sapiens): 1000 nM; Activity (Mus musculus [9]): 20 mg/kg; bioavailability [10]: 75%; Activity (Mus musculus [11]): 10 mg/kg; bioavailability [12]: 17%; bioavailability [13]: 100%; ED50 (Mus musculus [14]): 3 mg/kg
CC#CCOc1ccc(S(=O)(=O)N[C@@H](C(=O)NO)c2ccc(OCCNC)cc2)cc1,48,,10000,,,
CC#CCOc1ccc(S(=O)(=O)N(C)[C@@H](C(=O)NO)c2ccc(OCCNC)cc2)cc1,87,,,,,inhibition in vivo at 50 mg/kg (Mus musculus [6]): > 75%
